Test results from PMC7145288, “New Peptide-Based Pharmacophore Activates 20S Proteasome” (Molecules, 2020).

Key:
[1] = test system: 20S core proteasome α face pockets; test: Competition with Rpt C-terminal tail peptides for α face pockets (ChT-L activity); format: biochemical, human; conditions: Rpt peptide 1 μM added before TAT peptide; for Competition with Rpt tail peptides (in words, from radar plot scores): Rpt2 α3/α4, Rpt3 α1/α2, Rpt5 α5/α6, Rpt6 α2/α3 pocket, three to six experiments; for Enhanced (synergistic) activation with Rpt tail peptides (in words): Rpt5 or Rpt6 tails
Excerpt: As mentioned above, the binding pockets on the α face accept “anchors” from natural protein ligands of the 20S core. […] The 10-residue Rpt-derived C-terminal “tail” peptides (“Rpt peptides”) can be used as competitors with the Rpt subunits or with small allosteric ligands. Importantly, the Rpt peptides interject between the subunits with their C-termini, whereas TAT peptides, according to the modeling, use their N-termini for this purpose. To test the specificity of interactions between TAT compounds and the α face, we performed competition experiments. The 20S core was challenged with selected TAT compounds after treatment with Rpt peptides. We selected peptides of Rpt2 ([…]), Rpt3 ([…]), Rpt5 ([…]) and Rpt6 […]) subunits, docking in α3/α4, α1/α2, α5/α6 and α2/α3 pockets, respectively. Tails of Rpt2, 3, and 5 display the canonical HbYX motif, whereas the LeuTrpLys C-terminus of Rpt6 may be considered “pseudo-HbYX”, with a bulky Trp replacing Tyr. Results of the competition experiments are presented as radar plots in Figure 7. […] This pocket also emerged as the major binding site for (1) and (8). However, these compounds likely weakly competed with the Rpt2 tail for binding to the α3/α4 pocket as well. The α3/α4 pocket seemed to be favored by (6). […] These complex patterns point at the importance of allosteric effects between the α face ligands, the gate and the catalytic chamber.
Figure 7 TAT1 derivatives competed with selected C-terminal tails of Rpt (Regulatory Particle ATPases) subunits for binding to specific α face pockets. The scores presented in radar plots were calculated as ((relative activation by the [x] and Rpt tail)-(theoretical sum of activation by [x] and Rpt tail))/(theoretical sum of activation by [x] and Rpt tail), where [x] represent any TAT peptide. […] The positive scores for combinations of selected compounds with Rpt5 or Rpt6 tails indicated a presumed synergy in activation of the core. Average scores derived from three to six experiments are presented. The competition effects were statistically significant (at least p < 0.05) for Rpt3 peptide and (1) and (8), as well as for Rpt2 peptide and (6).
Human housekeeping core (20S) proteasome purified from erythrocytes was purchased from Boston Biochem, Inc. (Cambridge, MA) or from Enzo Life Sciences, Inc. (Farmingdale, NY). Multiple batches of the proteasomes were used and performed reproducibly. The stock proteasome was diluted to 0.2 mg/mL working solution in “dilution buffer” (50 mM Tris/HCl, pH 8, 20% glycerol). The following model peptide substrates, all releasing fluorescent 7-amino-4-methylcoumarin (AMC) reporter group after cleavage, were used: succinyl-LeuLeuValTyr-AMC (for the ChT-L peptidase; SucLLVY-AMC; Bachem Bioscience Inc., Philadelphia, PA), butoxycarbonyl-LeuArgArg-AMC (T-L; Bachem Bioscience Inc., Philadelphia, PA) and carbobenzoxy- LeuLeuGlu-AMC (PGPH; Enzo Life Sciences Inc., Farmingdale, NY). The substrates were used at concentration of 50 μM (ChT-L) or 100 μM (T-L, PGPH). Free AMC (Sigma-Aldrich, St. Louis, MO) was used as the standard. The C-terminal peptides derived from Rpt2, Rpt3, Rpt5 and Rpt6 were synthesized (standard solid-phase peptide chemistry) and purified to at least 98% purity by GenScript (Piscataway, NJ). The TAT peptides, Rpt peptides (except Rpt6) and the peptide substrates were dissolved in anhydrous dimethylsulfoxide (DMSO; Sigma-Aldrich, St. Louis, MO) and such stock solutions were stored at −20 °C. The total concentration of DMSO in final reaction mixtures never exceeded 3% (vol/vol). The Trp (tryptophan) -containing Rpt6 peptide was dissolved in ultrapure water and stored at −20 °C, protected from light. […]

[2] = test system: animal models of Alzheimer's disease; conditions: ref 15 (Chocron et al.); cited from earlier work
Excerpt: In the light of significant proteasome-enhancing effects of TAT peptides observed both in cellulo (Figure 5 and [15]) and in vivo [15], there is a crucial question of how they influence proteolytic activity in the most widespread form of the proteasome, the 26S holoenzyme. The most-explored TAT compounds are proposed to dock in the α1/α2 pocket, which, alongside the α5/α6 pocket, is permanently occupied in all conformational forms of the 26S assembly. Therefore, activation of the core already decorated with two 19S modules seems excluded. Still, in our in vitro experiments, a signif ...

SMILES: NCCCC[C@H](NC(=O)[C@H](CCCCN)NC(=O)[C@H](CCCCN)NC(=O)c1cc(NC(=O)[C@H](CCCCN)NC(=O)[C@H](CCCCN)NC(=O)[C@@H](N)CCCCN)cc(NC(=O)[C@H](CCCCN)NC(=O)[C@H](CCCCN)NC(=O)[C@@H](N)CCCCN)c1)C(=O)O [(8)]
- Competition with Rpt tail peptides (in words, from radar plot scores) [1]: added a weakly negative score for the Rpt2 tail to the presumed major competitor Rpt3
- Enhanced (synergistic) activation with Rpt tail peptides (in words) [1]: enhanced activation in the presence of one of Rpt tails, namely Rpt5 or Rpt6
- Proteins with increased turnover on treatment [2]: APP and β secretase

SMILES: N=C(N)NCCC[C@H](NC(=O)CN)C(=O)N[C@@H](CCCCN)C(=O)N[C@@H](CCCCN)C(=O)N[C@@H](CCCNC(=N)N)C(=O)N[C@@H](CCCNC(=N)N)C(=O)N[C@@H](CCC(N)=O)C(=O)N1Cc2ccccc2C[C@H]1C(=O)N1[C@@H](C(=O)N[C@@H](CCCNC(=N)N)C(=O)N2CCC[C@H]2C(=O)N[C@@H](CO)C(=O)O)C[C@H]2CCCC[C@H]21 [(5)]
- Competition with Rpt tail peptides (in words, from radar plot scores) [1]: competed fairly specifically with Rpt3 tail
- Enhanced (synergistic) activation with Rpt tail peptides (in words) [1]: enhanced activation in the presence of one of Rpt tails, namely Rpt5 or Rpt6
- Proteins with increased turnover on treatment [2]: APP and β secretase
